The source of these data is patent US9346769B2, “Tetrazolones as inhibitors of fatty acid synthase” (Infinity Pharmaceuticals, Inc., priority 2010, dated 2016).

Broadly, the IC50 is the concentration that inhibits the measured activity by half. Read a low IC50 as higher potency.

The target of this assay is T1, human FASN (Homo sapiens, UniProt P49327).
T1 construct: was purified from SKBR3 cells using procedures modified from those in Jayakumar et al; endogenous in cells; host or cells: SKBR3 human breast cancer cells (ATCC); Endogenous enzyme purified by ammonium sulfate precipitation and a mono Q column
T1 sequence (P49327 whole entry): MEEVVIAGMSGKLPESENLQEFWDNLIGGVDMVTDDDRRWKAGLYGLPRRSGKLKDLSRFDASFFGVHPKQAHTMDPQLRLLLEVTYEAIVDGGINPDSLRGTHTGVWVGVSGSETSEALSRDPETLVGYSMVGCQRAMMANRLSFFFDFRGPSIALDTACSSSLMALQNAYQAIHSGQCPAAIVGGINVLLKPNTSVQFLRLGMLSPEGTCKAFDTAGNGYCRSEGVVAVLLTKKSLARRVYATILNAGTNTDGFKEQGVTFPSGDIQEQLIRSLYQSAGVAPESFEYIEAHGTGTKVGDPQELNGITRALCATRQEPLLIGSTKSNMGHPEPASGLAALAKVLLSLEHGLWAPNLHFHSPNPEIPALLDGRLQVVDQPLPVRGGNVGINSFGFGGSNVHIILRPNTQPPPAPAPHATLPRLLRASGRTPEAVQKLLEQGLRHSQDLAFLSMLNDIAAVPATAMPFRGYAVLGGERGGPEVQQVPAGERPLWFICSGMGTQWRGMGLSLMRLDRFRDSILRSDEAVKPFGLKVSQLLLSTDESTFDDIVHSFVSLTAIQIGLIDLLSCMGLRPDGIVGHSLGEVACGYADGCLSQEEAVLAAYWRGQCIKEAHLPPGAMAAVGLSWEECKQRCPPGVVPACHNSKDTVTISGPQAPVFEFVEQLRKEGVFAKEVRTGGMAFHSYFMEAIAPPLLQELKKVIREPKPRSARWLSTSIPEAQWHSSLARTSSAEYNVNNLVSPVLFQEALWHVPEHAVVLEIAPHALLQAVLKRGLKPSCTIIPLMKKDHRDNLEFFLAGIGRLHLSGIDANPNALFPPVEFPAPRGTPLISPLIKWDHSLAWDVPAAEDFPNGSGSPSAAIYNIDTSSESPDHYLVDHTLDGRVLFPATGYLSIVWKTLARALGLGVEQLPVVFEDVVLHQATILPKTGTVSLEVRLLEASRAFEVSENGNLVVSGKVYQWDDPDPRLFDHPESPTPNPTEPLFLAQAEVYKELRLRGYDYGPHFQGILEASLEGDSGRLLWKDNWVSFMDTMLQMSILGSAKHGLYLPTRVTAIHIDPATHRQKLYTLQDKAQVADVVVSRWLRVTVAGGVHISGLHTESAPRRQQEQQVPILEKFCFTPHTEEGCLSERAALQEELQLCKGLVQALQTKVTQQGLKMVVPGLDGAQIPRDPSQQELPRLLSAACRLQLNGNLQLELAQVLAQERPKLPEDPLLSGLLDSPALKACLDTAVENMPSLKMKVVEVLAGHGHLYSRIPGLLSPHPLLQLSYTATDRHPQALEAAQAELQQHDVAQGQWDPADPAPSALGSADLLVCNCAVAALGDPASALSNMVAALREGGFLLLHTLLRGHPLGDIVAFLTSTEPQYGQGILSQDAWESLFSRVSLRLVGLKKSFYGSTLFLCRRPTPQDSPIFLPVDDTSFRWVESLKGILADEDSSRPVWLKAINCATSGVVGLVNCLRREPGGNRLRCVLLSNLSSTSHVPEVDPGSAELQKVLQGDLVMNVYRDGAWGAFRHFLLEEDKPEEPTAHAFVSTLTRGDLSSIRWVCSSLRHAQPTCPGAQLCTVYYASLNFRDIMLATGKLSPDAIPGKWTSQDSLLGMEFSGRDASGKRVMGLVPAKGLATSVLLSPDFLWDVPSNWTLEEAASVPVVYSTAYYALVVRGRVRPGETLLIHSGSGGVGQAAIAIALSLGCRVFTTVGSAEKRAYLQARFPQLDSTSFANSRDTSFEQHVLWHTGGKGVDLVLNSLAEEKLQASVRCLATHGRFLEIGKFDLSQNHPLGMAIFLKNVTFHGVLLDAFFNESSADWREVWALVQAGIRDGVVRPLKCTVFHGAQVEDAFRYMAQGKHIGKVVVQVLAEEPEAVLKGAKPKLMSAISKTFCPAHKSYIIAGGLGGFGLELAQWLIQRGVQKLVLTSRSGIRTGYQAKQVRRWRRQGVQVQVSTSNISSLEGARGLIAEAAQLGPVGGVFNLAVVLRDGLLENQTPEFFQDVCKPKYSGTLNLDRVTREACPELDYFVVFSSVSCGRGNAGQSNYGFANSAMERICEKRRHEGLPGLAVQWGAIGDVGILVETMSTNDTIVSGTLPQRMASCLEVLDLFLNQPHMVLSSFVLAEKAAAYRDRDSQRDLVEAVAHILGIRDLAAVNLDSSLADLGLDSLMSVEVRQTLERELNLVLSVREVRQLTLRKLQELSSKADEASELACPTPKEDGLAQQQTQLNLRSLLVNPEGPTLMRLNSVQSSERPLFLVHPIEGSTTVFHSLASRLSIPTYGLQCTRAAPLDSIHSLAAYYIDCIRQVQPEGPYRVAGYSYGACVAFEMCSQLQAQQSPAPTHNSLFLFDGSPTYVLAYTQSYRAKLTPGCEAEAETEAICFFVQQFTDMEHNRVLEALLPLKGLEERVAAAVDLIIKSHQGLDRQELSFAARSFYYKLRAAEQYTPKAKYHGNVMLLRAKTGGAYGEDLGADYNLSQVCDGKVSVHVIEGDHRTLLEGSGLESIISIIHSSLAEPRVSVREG
The experiment in a line: FASN NADPH Consumption Assay. The format is biochemical. To be noted: human FASN purified from SKBR3 cells; starred symbols. As for the experimental part:
Human FASN protein (SEQ ID NO. 1) was purified from SKBR3 cells using procedures modified from those in Jayakumar et al. PNAS 1995, 92:8695-8699. SKBR3 cells were obtained from ATCC and grown in DMEM high glucose medium supplemented with 10% FBS, 1 μg/mL bovine pancreas insulin, 100 U/mL penicillin and 100 µg/mL streptomycin. The confluent cells were trypsinized and washed three times with PBS buffer before frozen in liquid N2 and stored at −80° C. Frozen cells were thawed on ice and resuspended in lysis buffer (25 mM Tris-HCl, pH 7.0, 15 mM NaCl, 1 mM EDTA, and 1 mM DTT) with protease inhibitors. The cells were lysed by sonication, and the cell debris was removed by centrifugation at 20,000 rpm for 30 min. To the supernatant, neutralized saturated ammonium sulfate solution was added to a final concentration of 35%. The solution was left on ice for 1 hr, and the precipitated proteins were harvested by centrifugation at 20,000 rpm for 30 min. The proteins were redissolved in lysis buffer without NaCl and loaded on a mono Q column. Bound proteins were eluted with a linear gradient of NaCl in lysis buffer. Each fraction was analyzed by SDS-PAGE and FASN NADPH consumption assay. The fractions containing FASN were pooled and concentrated to 2-3 mg/mL. Glycerol was added to 20%, and the protein was frozen in liquid N2 and stored at −80° C.
All chemicals were purchased from Sigma (St. Louis, Mo.). The procedures of NADPH consumption assay were similar to those described in Cox et al., PNAS 1983, 80:4233-4237. On a 96-well polypropylene microplate, dilution series (typical concentrations 60 nM-1.0 mM) of test compounds were prepared in DMSO, of which 4.0 μL each was transferred to a black polystyrene assay microplate and mixed with 36 μL FASN assay buffer (50 mM potassium phosphate, pH 7.0, 1.0 mM EDTA, 0.01% NP-40) plus 5.0 mM fresh DTT. FASN protein (40 μL 150 nM FASN) was added per well, and the microplate was incubated at 37° C. for 30 min. Enzyme activity measurement was initiated by addition of 20 μL 5× substrate mixture to final concentrations of 60 nM FASN, 2.4 nM-40 μM compound, 0.2 mM NADPH, 50 μM butyryl-CoA, 0.5 mM malonyl-CoA in 100 μL assay buffer plus 5.0 mM DTT and 4.0% DMSO. NADPH consumption was monitored kinetically by fluorescence (λEx=340 nm, λEm=460 nm) on an EnVision 2100 multilabel plate reader (Perkin Elmer, Waltham, Mass.). FASN enzyme activity (slope) in the presence of 4% DMSO was used as maximum control, whereas background (minimum control) was measured by omission of malonyl-CoA in the substrate mixture. Inhibition curves were fitted by a logistic function to yield IC50 values:
Compounds were assayed as inhibitors of human FASN using the above-described FASN Scintillation Proximity Flashplate Assay (IC50; nM) or FASN NADPH Consumption Assay (*) (IC50; nM). The corresponding activity of the isolated compound is also provided along with the measured mass (ES^+).
`O=C(O)c1ccc(N(CCc2ccccc2)C(=O)n2nnn(-c3ccccc3)c2=O)cc1`: the IC50 was in the range of 250 to 1000 nM. `CN(C(=O)n1nnn(-c2ccccc2F)c1=O)c1ccccc1` gave an IC50 of 250 to 1000 nM. For `CCN(C(=O)n1nnn(-c2c(F)cccc2F)c1=O)c1ccc([N+](=O)[O-])cc1F` the value was 60 to 250 nM; for `CCN(C(=O)n1nnn(-c2c(F)cccc2F)c1=O)c1ccc(Br)cc1`, less than 60 nM; for `O=C(N(CCO)c1ccccc1)n1nnn(-c2c(F)cccc2F)c1=O`, 1000 to 10000 nM. As for `CC(C)(C)OC(=O)N[C@@H]1CCN(C(=O)n2nnn(-c3c(Cl)cccc3Cl)c2=O)C1`, the figure is 1000 to 10000 nM; as for `CC(C)(C)OC(=O)N[C@H]1CCN(C(=O)n2nnn(-c3c(Cl)cccc3Cl)c2=O)C1`, greater than 10000 nM; as for `O=C(N1CCCC1)n1nnn(-c2c(Cl)cccc2Cl)c1=O`, greater than 10000 nM.

For the molecule `CC(=O)N[C@H]1CCN(C(=O)n2nnn(-c3c(Cl)cccc3Cl)c2=O)C1`, the IC50 is greater than 10000 nM. As for `CC(=O)N[C@@H]1CCN(C(=O)n2nnn(-c3c(Cl)cccc3Cl)c2=O)C1`, the figure is greater than 10000 nM; as for `CN(C)C(=O)[C@@H]1CCCN1C(=O)n1nnn(-c2c(Cl)cccc2Cl)c1=O`, greater than 10000 nM; as for `CNC(=O)[C@@H]1CCCN1C(=O)n1nnn(-c2c(Cl)cccc2Cl)c1=O`, greater than 10000 nM. As for `CC(C)(C)OC(=O)C1CCN(C(=O)n2nnn(-c3c(Cl)cccc3Cl)c2=O)CC1`, the figure is 1000 to 10000 nM; as for `O=C(C1CCCN(C(=O)n2nnn(-c3c(Cl)cccc3Cl)c2=O)C1)N1CCCC1` (stereo not drawn), greater than 10000 nM. For `CC(C)(C)OC(=O)NC1CCCN(C(=O)n2nnn(-c3c(Cl)cccc3Cl)c2=O)C1` (stereo not drawn) the value was 1000 to 10000 nM. Regarding `CCN(CC)C(=O)C1CCCN(C(=O)n2nnn(-c3c(Cl)cccc3Cl)c2=O)C1` (stereo not drawn), the 50% inhibitory concentration (IC50) lay in the range of 1000 to 10000 nM.

Consider `CN(C)C1CCCN(C(=O)n2nnn(-c3c(Cl)cccc3Cl)c2=O)C1` (stereo not drawn), for which the IC50 fell in the range of 1000 to 10000 nM. As for `CC(=O)NC1CCCN(C(=O)n2nnn(-c3c(Cl)cccc3Cl)c2=O)C1` (stereo not drawn), the figure is greater than 10000 nM; as for `O=C(C1CCCN(C(=O)n2nnn(-c3c(Cl)cccc3Cl)c2=O)C1)N1CCCCC1` (stereo not drawn), 1000 to 10000 nM; as for `O=C(O)C1CCN(C(=O)n2nnn(-c3c(Cl)cccc3Cl)c2=O)CC1`, greater than 10000 nM.

In turn, `O=C(N1CCCCC1)n1nnn(-c2c(Cl)cccc2Cl)c1=O` had an IC50 of 1000 to 10000 nM. `CS(=O)(=O)NC1CCCN(C(=O)n2nnn(-c3c(Cl)cccc3Cl)c2=O)C1` (stereo not drawn) showed an IC50 greater than 10000 nM. `CCNC(=O)NC1CCCN(C(=O)n2nnn(-c3c(Cl)cccc3Cl)c2=O)C1` (stereo not drawn): the half-inhibitory concentration (IC50) was greater than 10000 nM. As for `O=C(N1CCOCC1)n1nnn(-c2ccccc2Cl)c1=O`, the figure is greater than 10000 nM; as for `Cc1ccccc1C#Cc1cccc(F)c1-n1nnn(C(=O)N2CCCC3CCCCC32)c1=O` (stereo not drawn), 60 to 250 nM. Regarding `O=C(N1CCCC2CCCCC21)n1nnn(-c2c(F)cccc2Br)c1=O` (stereo not drawn), the IC50 is 60 to 250 nM.

`O=C(N1CCCC2CCCCC21)n1nnn(-c2c(F)cccc2F)c1=O` (stereo not drawn) showed an IC50 of 60 to 250 nM. For `O=C(N1CCCC2CCCCC21)n1nnn(-c2ccccc2Oc2ccccc2)c1=O` (stereo not drawn) the value was 250 to 1000 nM. For `O=C(N1CCCC2CCCCC21)n1nnn(-c2c(Cl)cccc2Cl)c1=O` (stereo not drawn) the value was 250 to 1000 nM. With `O=C(N1CC[C@](O)(c2ccccc2)[C@@H]2CCCC[C@H]21)n1nnn(-c2c(F)cccc2F)c1=O`, the 50% inhibitory concentration (IC50) lay in the range of 1000 to 10000 nM. `C[C@@H]1CC(=O)[C@@H]2CCCC[C@H]2N1C(=O)n1nnn(-c2c(F)cccc2F)c1=O` had an IC50 of 1000 to 10000 nM.

Molecule `O=C(N1CCc2ccccc2C1)n1nnn(-c2c(F)cccc2F)c1=O` registered an IC50 of 250 to 1000 nM. Molecule `O=C(O)c1ccc2c(c1)CCCN2C(=O)n1nnn(-c2ccccc2)c1=O` registered an IC50 of 60 to 250 nM. As for `O=C(N1CCCc2ccccc21)n1nnn(-c2ccccc2Oc2ccccc2)c1=O`, the figure is 60 to 250 nM; as for `COC(=O)C1CCc2ccccc2N1C(=O)n1nnn(-c2ccccc2Oc2ccccc2)c1=O` (stereo not drawn), 250 to 1000 nM; as for `Cc1cccc2c1N(C(=O)n1nnn(-c3c(F)cccc3F)c1=O)CCC2`, 60 to 250 nM. For `O=C(N1CCCc2cc([N+](=O)[O-])ccc21)n1nnn(-c2c(F)cccc2F)c1=O` the value was 1000 to 10000 nM. As for `COc1ccc2c(c1)CCCN2C(=O)n1nnn(-c2c(F)cccc2F)c1=O`, the figure is 60 to 250 nM; as for `Cc1ccc2c(c1)CCCN2C(=O)n1nnn(-c2c(F)cccc2F)c1=O`, 60 to 250 nM; as for `O=C(N1CCCc2ccccc21)n1nnn(-c2c(F)cccc2F)c1=O`, 60 to 250 nM.

`CC(C)(C)OC(=O)Nc1ccc2c(c1)CCCN2C(=O)n1nnn(-c2c(F)cccc2F)c1=O` returned an IC50 of 60 to 250 nM. Molecule `O=C(N1CCCc2cc(Br)ccc21)n1nnn(-c2c(F)cccc2F)c1=O` registered a 50% inhibitory concentration (IC50) of 60 to 250 nM. As to `O=CNc1ccc2c(c1)CCCN2C(=O)n1nnn(-c2c(F)cccc2F)c1=O`, the IC50 is 60 to 250 nM. As for `Nc1ccc2c(c1)CCCN2C(=O)n1nnn(-c2c(F)cccc2F)c1=O`, the figure is 60 to 250 nM; as for `O=CNc1cccc2c1CCCN2C(=O)n1nnn(-c2c(F)cccc2F)c1=O`, 60 to 250 nM; as for `COC(=O)C1CCc2ccccc2N1C(=O)n1nnn(-c2c(F)cccc2F)c1=O` (stereo not drawn), 60 to 250 nM.

Regarding `CC1CCc2ccccc2N1C(=O)n1nnn(-c2c(F)cccc2F)c1=O` (stereo not drawn), the IC50 lay within 60 to 250 nM. For `CC(C)(C)OC(=O)Nc1cccc2c1CCCN2C(=O)n1nnn(-c2c(F)cccc2F)c1=O` the value was 60 to 250 nM; for `O=C(N1CCCc2ccc(C(F)(F)F)cc21)n1nnn(-c2c(F)cccc2F)c1=O`, 250 to 1000 nM; for `Nc1cccc2c1CCCN2C(=O)n1nnn(-c2c(F)cccc2F)c1=O`, 60 to 250 nM. As for `O=C(OCc1ccccc1)c1ccc2c(c1)CCCN2C(=O)n1nnn(-c2c(Cl)cccc2Cl)c1=O`, the figure is 1000 to 10000 nM; as for `O=C(N1c2ccccc2Sc2ccccc21)n1nnn(-c2c(F)cccc2F)c1=O`, less than 60 nM; as for `O=C(N1CCOc2ccccc21)n1nnn(-c2c(F)cccc2F)c1=O`, 1000 to 10000 nM. For `O=C(N1Cc2ccccc2Cc2ccccc21)n1nnn(-c2c(F)cccc2F)c1=O` the value was 60 to 250 nM. `O=C(N1CCCCc2ccccc21)n1nnn(-c2c(F)cccc2F)c1=O` registered a 50% inhibitory concentration (IC50) of 60 to 250 nM. For `Cc1ccccc1C#Cc1cccc(F)c1-n1nnn(C(=O)N2CCCCc3ccccc32)c1=O` the value was 60 to 250 nM; for `Cc1ccccc1CCc1cccc(F)c1-n1nnn(C(=O)N2CCCCc3ccccc32)c1=O`, 60 to 250 nM; for `O=C(N1CCCCc2ccccc21)n1nnn(-c2c(F)cccc2Br)c1=O`, 250 to 1000 nM. As for `CCOC(=O)N1CCC(N(CC)C(=O)n2nnn(-c3c(Cl)cccc3Cl)c2=O)CC1`, the figure is 1000 to 10000 nM; as for `CCN(C(=O)n1nnn(-c2cccc(Cl)c2)c1=O)C1CCCCC1`, greater than 10000 nM; as for `CCN(C(=O)n1nnn(-c2cccc(C(F)(F)F)c2)c1=O)C1CCCCC1`, greater than 10000 nM. `CCN(C(=O)n1nnn(-c2cccc(C#N)c2)c1=O)C1CCCCC1` yielded an IC50 greater than 10000 nM. As for `O=C(N(O)C1CCCCC1)n1nnn(-c2c(F)cccc2F)c1=O`, the figure is 60 to 250 nM; as for `CCN(C(=O)n1nnn(-c2c(F)cccc2F)c1=O)C1CCCCC1`, 250 to 1000 nM; as for `N#CCCN(C(=O)n1nnn(-c2c(Cl)cccc2Cl)c1=O)C1CCCCC1`, 1000 to 10000 nM. In turn, `CCN(C(=O)n1nnn(-c2c(Cl)cccc2Cl)c1=O)C1CCCCC1` had an IC50 of 1000 to 10000 nM.
